In US8557737B2, “Methods of altering poppy characteristics” (priority 2005, dated 2013):

Columns and labels:
Type in all cases: in vivo, Papaver somniferum
poppy crops [1] = experiment: Example 6: field trial, one or two applications of metsulfuron-methyl after Sunny versus metsulfuron-methyl alone; conditions: COMPOUND 1 120 MG/HA + PULSE .2 % V/V at ERU and at BE (two applications, alone)
Protocol: (§1) All trials were conducted on poppy crops. Seed was treated with Thiram (5.6 g of Thiram 800/kg seed) and Apron (4 g/kg) and sown at a rate of approximately 750 g/ha. Fertilisers were applied at sowing. Most commonly, either 50:50 lime:superphosphate/triple superphosphate at 125 kg/ha, or lime:superphosphate at 250 kg/ha, were mixed with seed and drilled at a depth of 15 mm. In the same operation, NPK (nitrogen:phosphorus:potassium), at various rates, was banded 75 mm below the seed, unless otherwise stated. All crops were subjected to herbicide sprays for weed control, fungicide sprays for disease control, insecticide sprays if appropriate and were irrigated as required.
(§2) All spray applications were made with a precision sprayer, using Silvan Lurmark flat-fan, low-drift nozzles (LD110-0015). Spray equipment was calibrated to deliver 153 L water/ha.
(§3) At harvest, a 2 m×4 m quadrat was placed in each plot (3 m×6 m, unless otherwise stated) and capsules hand-picked from this area. Capsules were broken up, seed and capsule material separated and weighed. Capsule moisture readings were taken with a moisture meter. Alkaloid yield data were calculated on Pesticide Research Manager (version 5 for Windows) using the formulae below. Briefly, capsule weight was adjusted for moisture to a dry weight, 5% of seed weight was added to this (this amount of capsule material regularly occurs in seed samples after processing) to give a capsule weight per plot. Seed weight was adjusted to 95% of crude weight. Straw weights were determined by multiplying dry capsule weight by 1.3 (estimated amount of stem material in a commercial harvest) and adjusted to 11% moisture. When Lontrel was applied to crops exact capsule and seed weight data were entered. Analyses of variance and a Multiple Range Test were performed on data using Pesticide Research Manager. Significant differences (P=0.05) between treatments are denoted by different lower case letters adjacent to treatment means in the tables of results.
Trial to evaluate one or two applications of 120 mg/ha metsulfuron-methyl (Compound 1) after 1 L/ha Sunny, and compare with two applications of metsulfuron-methyl alone. Sunny was applied with crop at 12-14 leaf, metsulfuron-methyl to crop at 12-14 leaf, early run-up and bud-emergence stages. Plant heights were measured at early-full flower and percent lodging was measured on the day of capsule harvest.

poppy crops [2] = experiment: Example 12: field trial, metsulfuron-methyl, Sunny and metsulfuron-methyl+Sunny at row cover, early run-up, late run-up, morphine crop; conditions: Trt 3: COMPOUND 1 120 MG/HA + PULSE .2% V/V at RC, ERU and LRU
Protocol: as §1, §2, §3
Trial to evaluate applications of metsulfuron-methyl (Compound 1), Sunny and metsulfuron-methyl+Sunny, in a morphine crop. Treatment sprays were applied to crop at row cover, early run-up and late run-up. Plant heights were measured at end of flowering.

poppy crops [3] = experiment: Example 13: field trial, metsulfuron-methyl, Lontrel and metsulfuron-methyl+Lontrel, morphine crop; conditions: Trt 3: COMPOUND 1 120 MG/HA + PULSE .2% V/V at RC, ERU and LRU
Protocol: as §1, §2, §3
Trial to evaluate applications of metsulfuron-methyl (Compound 1), Lontrel and metsulfuron-methyl+Lontrel, in a morphine crop. Treatment sprays were applied to crop at row cover, early run-up and late run-up. Plant heights were measured at green capsule stage. Lodging was assessed at harvest.

poppy crops [4] = experiment: Example 16: field trial, metsulfuron-methyl, mesosulfuron-methyl and triasulfuron at row cover and ground cover/early run-up, morphine crop; conditions: Trt 2: COMPOUND 1 120 MG/HA + PULSE .2% V/V at RC and GC/ERU
Protocol: as §1, §2
as §3, with “Manager.” for “Manager. Significant differences (P=0.05) between treatments are denoted by different lower case letters adjacent to treatment means in the tables of results.”
Trial to evaluate applications of metsulfuron-methyl (Compound 1), mesosulfuron-methyl (Compound 2) and triasulfuron (Compound 3), in a morphine crop. Treatment sprays were applied to crop at row cover and ground cover/early run-up, respectively. Plant heights were assessed 5 weeks after last application and lodging was assessed at capsule harvest.

poppy crops [5] = experiment: Example 17: field trial, triasulfuron, mesosulfuron-methyl and metsulfuron-methyl at early run-up and mid-late run-up, morphine crop; conditions: Trt 2: COMPOUND 1 120 MG/HA + PULSE .2% V/V at ERU and M-LRU
Protocol: as §1, §2
as §3, with “Manager.” for “Manager. Significant differences (P=0.05) between treatments are denoted by different lower case letters adjacent to treatment means in the tables of results.”
Trial to evaluate applications of triasulfuron, mesosulfuron-methyl and metsulfuron-methyl, in a morphine crop. Treatment sprays were applied to with crop at early run-up and mid-late run-up, respectively. Plant heights were measured on 6 weeks after last application and lodging was assessed at capsule harvest.

poppy crops [6] = experiment: Example 19: field trial, sulfosulfuron, thifensulfuron-methyl and metsulfuron-methyl, morphine crop; conditions: 120 MG/HA + PULSE .2 % V/V, applied at M-LRU and LRU-BE
Protocol: as §1, §2
as §3, with “Manager.” for “Manager. Significant differences (P=0.05) between treatments are denoted by different lower case letters adjacent to treatment means in the tables of results.”
Trial to evaluate applications of sulfosulfuron, thifensulfuron-methyl and metsulfuron-methyl, in a morphine crop. Treatment sprays were applied to crop at mid-late run-up and late-run-up/bud-emergence, respectively. Plant heights were measured some 10 weeks after the last application. Lodging was assessed at capsule harvest.

With `COC(=O)c1ccccc1S(=O)(=O)NC(=O)Nc1nc(C)nc(OC)n1` [Compound 1, metsulfuron-methyl] the “CAPSULE/SEED RATIO” value (poppy crops [1]) was 6.140 a, the “CROP WEIGHT” value (poppy crops [1]) was 2.46 c t/ha and the MORPHINE (poppy crops [1]) was 38.8 b kg/ha. The SEED (poppy crops [1]) was 269 c kg/ha, the STRAW (poppy crops [1]) was 2194 a kg/ha and the “STRAW MORPHINE” value (poppy crops [1]) was 1.77 b %. For the same molecule, the “PLANT HEIGHT” value (poppy crops [1]; measured at early-full flower) was 77.4 cm·days, the LODGING (poppy crops [1]; measured on the day of capsule harvest) was 1.0 b % and the “CAPS/SEED RATIO” value (poppy crops [2]) was 10.444 a. The “CROP WEIGHT” value (poppy crops [2]) was 2.24 b t/ha, the MORPHINE (poppy crops [2]) was 47.11 b kg/ha and the SEED (poppy crops [2]) was 143 c kg/ha. The STRAW (poppy crops [2]) was 2099 a kg/ha, the “STRAW MORPHINE” value (poppy crops [2]) was 2.24 c % and the HEIGHT (poppy crops [2]; height at end of flowering) was 83.4 bc cm. For the same molecule, the “CAPS/SEED RATIO” value (poppy crops [3]) was 3.431 a, the “CROP WEIGHT” value (poppy crops [3]) was 3.11 b t/ha and the MORPHINE (poppy crops [3]) was 50.81 a kg/ha. The SEED (poppy crops [3]) was 582 c kg/ha, the STRAW (poppy crops [3]) was 2530 a kg/ha and the “STRAW MORPHINE” value (poppy crops [3]) was 2.01 a %. The LODGING (poppy crops [3]; assessed at harvest) was 2.2 b %, the HEIGHT (poppy crops [3]; height at green capsule stage) was 95.8 b cm and the “CAPS/SEED RATIO” value (poppy crops [4]) was 1.740 a. For the same molecule, the “CROP WEIGHT” value (poppy crops [4]) was 2.46 c t/ha, the MORPHINE (poppy crops [4]) was 37.76 bc kg/ha and the SEED (poppy crops [4]) was 698 d kg/ha. The STRAW (poppy crops [4]) was 1749 bc kg/ha, the “STRAW MORPHINE” value (poppy crops [4]) was 2.15 ab % and the “PLANT HEIGHT” value (poppy crops [4]; 5 weeks after last application) was 90.0 c cm. The “CAPS/SEED RATIO” value (poppy crops [5]) was 8.976 a, the “CROP WEIGHT” value (poppy crops [5]) was 2.60 b t/ha and the MORPHINE (poppy crops [5]) was 49.48 a kg/ha. The SEED (poppy crops [5]) was 187 c kg/ha, the STRAW (poppy crops [5]) was 2343 a kg/ha and the “STRAW MORPHINE” value (poppy crops [5]) was 2.11 c %. For the same molecule, the “PLANT HEIGHT” value (poppy crops [5]; 6 weeks after last application) was 97.0 c cm, the LODGING (poppy crops [5]; at capsule harvest) was 2.7 b % and the “CAPSULE/SEED RATIO” value (poppy crops [6]) was 6.352. The “CROP WEIGHT” value (poppy crops [6]) was 1.33 t/ha, the MORPHINE (poppy crops [6]) was 21.65 kg/ha and the SEED (poppy crops [6]) was 131 kg/ha. For the same molecule, the STRAW (poppy crops [6]) was 1203 kg/ha, the “STRAW MORPHINE %” value (poppy crops [6]) was 1.80% and the “PLANT HEIGHT” value (poppy crops [6]; measured some 10 weeks after last application) was 72 cm.
